# Patent US6864086B2, “Nitric oxide-scavenging system for culturing oocytes, embryos, or other cells” (Board of Supervisors of Louisiana State University and …, priority 1998, dated 2005)
# System: bovine embryos
# Assay: Example 9: L-NAME (1 or 1000 nM) added to mBECM containing serum and Hb, pre-hatching development
# Type: cell-based
# Parameters: key to Least square mean of embryos developed to 16-cell / Least square mean of embryos developed to Blastocyst / Least square mean of embryos developed to 2-cell / Least square mean of embryos developed to 8-cell / Least square mean of embryos developed to Morula: fraction developed; each embryo scored 1 = developed, 0 = not developed
# Conditions: for Number of embryos developed to 2-cell / Number of embryos developed to 8-cell / Number of embryos developed to 16-cell / Number of embryos developed to Morula / Number of embryos developed to Blastocyst: 96 embryos; for Number of embryos developed to 2-cell / Least square mean of embryos developed to 2-cell: 48 h; for Number of embryos developed to 8-cell / Least square mean of embryos developed to 8-cell: 60 h; for Number of embryos developed to 16-cell / Least square mean of embryos developed to 16-cell: 120 h; for Number of embryos developed to Morula / Least square mean of embryos developed to Morula: 144 h; for Number of embryos developed to Blastocyst / Least square mean of embryos developed to Blastocyst: 192 h
# Description: The basic medium used for maturation of oocytes was tissue culture medium (TCM)-199 with Earle's salts, buffered with 25 mM HEPES (Gibco BRL, Grand Island, N.Y.) and supplemented with 10% (v/v) heat-inactivated fetal bovine serum (FBS; Hyclone Laboratories, Logan, Utah), 1 μg/ml estradiol-17β (NOBL Laboratories, Sioux Center, Iowa), 3 μg/ml bovine FSH (NOBL Laboratories), 6 μg/ml bovine LH (NOBL Laboratories), and 25 μg/ml gentamycin (Sigma Chemical Co., St. Louis, Mo.). The basic medium used for treatment of spermatozoa and fertilization of oocytes was a modified Tyrode's medium (J. Parrish et al., Capacitation of bovine sperm by heparin. Biol. Reprod. 38:1171-1180 (1988)), supplemented with 0.25 mM sodium pyruvate (Gibco BRL), 6 mg/ml fatty acid (FA)-free BSA (No. A-6003, Sigma), 15 μg/ml calcium heparin from porcine intestinal mucosa (183 USP/mg; H-8398, Sigma), and 25 μg/ml gentamycin. Modified bovine embryo culture medium (mBECM) containing 10 μM β-mercaptoethanol was used for culture of embryos, as described in J. Lim et al., “Roles of growth factors in the development of bovine embryos fertilized in vitro and cultured singly in a defined medium,” Reprod. Fertil. Dev., 8:1199-1205 (1996). mBECM supplemented with 10% (v/v) FBS was used for co-culturing inseminated oocytes with CGC. Osmolarity of the medium was maintained within the range of 265-290 mOsm.
# All cumulus-oocyte complexes (COC) were collected in Madison, Wis. (BOMED, Inc.) and were shipped in 2 ml of maturation medium in a battery powered incubator via overnight express mail service. Oocytes matured during transit and arrived within 24 h after exposure to maturation medium, pre-equilibrated at 39° C. in 5% CO2 in air. At 22 to 24 h after exposure to the medium, the COCs were inseminated in vitro as described in J. Lim et al., “Intracytoplasmic glutathione concentration and the role of β-mercaptoethanol in preimplantation development of bovine embryos,” Theriogenology, 46:429-439 (1996). At 18 h post-insemination, COCs were cultured in groups (28-40 embryos) in a 4-well multidish (Nunc, Roskilde, Denmark) containing 0.8-ml of mBECM. Embryos were dislodged from CGC at 36 to 48 h post-insemination.
# In Example 9, IVF embryos were cultured in MBECM supplemented as follows: 1) no addition (control), 2) Hb (1 μg/ml), 3) Hb plus L-NAME (1 nM), and 4) Hb plus L-NAME (1000 nM). Embryonic development was evaluated up to 192 h post-insemination. A total of 384 oocytes were inseminated, and were randomly and equally allotted to 4 replicates.
# Embryos developed to the 2-cell, 8-cell, 16-cell, morula, and blastocyst stages at the pertinent observation times were individually scored ‘1’ (developed). Embryos that had not developed to these stages at the same times were scored ‘0’ (non-developed). Sums of the scores at each stage of development were evaluated by analysis of variance using a general linear model (PROC-GLM) in the SAS statistical programming package (1991). In Example 8, the combined effects of Hb addition and month of oocyte collection were first examined in a 2×7 factorial arrangement. Overall differences in embryonic development in Hb-free and Hb-containing culture systems were further evaluated. […] Differences were regarded as statistically significant where P values were less than 0.05.
compound,measurement,setting,value
"COC(=O)[C@@H](N)CCCN=C(N)N[N+](=O)[O-].Cl [L-NAME, N^G-Lω-nitro-L-arginine methyl ester hydrochloride]",Number of embryos developed to 2-cell,L-NAME 1 nM with Hb 1 μg/ml,78
same,Number of embryos developed to 8-cell,L-NAME 1 nM with Hb 1 μg/ml,60
same,Number of embryos developed to 16-cell,L-NAME 1 nM with Hb 1 μg/ml,46
same,Number of embryos developed to Morula,L-NAME 1 nM with Hb 1 μg/ml,38
same,Number of embryos developed to Blastocyst,L-NAME 1 nM with Hb 1 μg/ml,26
same,Least square mean of embryos developed to 2-cell,L-NAME 1 nM with Hb 1 μg/ml,0.813
same,Least square mean of embryos developed to 8-cell,L-NAME 1 nM with Hb 1 μg/ml,0.625
same,Least square mean of embryos developed to 16-cell,L-NAME 1 nM with Hb 1 μg/ml,0.479
same,Least square mean of embryos developed to Morula,L-NAME 1 nM with Hb 1 μg/ml,0.396
same,Least square mean of embryos developed to Blastocyst,L-NAME 1 nM with Hb 1 μg/ml,0.271
same,Number of embryos developed to 2-cell,L-NAME 1000 nM with Hb 1 μg/ml,70
same,Number of embryos developed to 8-cell,L-NAME 1000 nM with Hb 1 μg/ml,50
same,Number of embryos developed to 16-cell,L-NAME 1000 nM with Hb 1 μg/ml,40
same,Number of embryos developed to Morula,L-NAME 1000 nM with Hb 1 μg/ml,28
same,Number of embryos developed to Blastocyst,L-NAME 1000 nM with Hb 1 μg/ml,19
same,Least square mean of embryos developed to 2-cell,L-NAME 1000 nM with Hb 1 μg/ml,0.729
same,Least square mean of embryos developed to 8-cell,L-NAME 1000 nM with Hb 1 μg/ml,0.521
same,Least square mean of embryos developed to 16-cell,L-NAME 1000 nM with Hb 1 μg/ml,0.416
same,Least square mean of embryos developed to Morula,L-NAME 1000 nM with Hb 1 μg/ml,0.292
same,Least square mean of embryos developed to Blastocyst,L-NAME 1000 nM with Hb 1 μg/ml,0.198
same,further stimulation of embryonic development to the blastocyst stage,"L-NAME added to culture medium containing Hb, P>0.07",did not further stimulate
